# In patent publication US7709471B2, “Compounds” (AstraZeneca AB, priority 2006, dated 2010):
# Counter-ions that a name gives are not always drawn. Like-named read-outs stand apart in the source and are kept apart here.
# How the values were obtained:
# recombinant Plk1 = recombinant Plk1 (Homo sapiens, UniProt P53350); test: In Vitro Plk1 Enzyme Assay (SPA, GST-Cdc25C phosphorylation); type: biochemical; details: ATP 64 nM, 90 minutes, read-out: IC50 (Plk1 enzyme inhibition)
# [1] = test system: human colon tumour cell line HT29; test: Cellular Assay (phosphohistone H3 Ser10 mitotic marker, HT29); type: cell-based; details: HT-29, 24 h, HT29 cells
# Description: Chromosome condensation in mitosis is accompanied by phosphorylation of histone H3 on serine 10.
# After 24 hours, cells were fixed in 3.7% (v/v) formaldehyde then permeabilised and blocked for 10 minutes in 100 μl 0.5% (v/v) Triton X-100, 1% (w/v) bovine serum albumin (BSA) in phosphate buffered saline (PBS). […] The raw assay data were analysed by non-linear regression analysis and used to determine an IC50 value for each compound.
# [2] = read-out: IC50 (cellular assay, phosphohistone H3)
# Chain of recombinant Plk1 (P53350 whole entry): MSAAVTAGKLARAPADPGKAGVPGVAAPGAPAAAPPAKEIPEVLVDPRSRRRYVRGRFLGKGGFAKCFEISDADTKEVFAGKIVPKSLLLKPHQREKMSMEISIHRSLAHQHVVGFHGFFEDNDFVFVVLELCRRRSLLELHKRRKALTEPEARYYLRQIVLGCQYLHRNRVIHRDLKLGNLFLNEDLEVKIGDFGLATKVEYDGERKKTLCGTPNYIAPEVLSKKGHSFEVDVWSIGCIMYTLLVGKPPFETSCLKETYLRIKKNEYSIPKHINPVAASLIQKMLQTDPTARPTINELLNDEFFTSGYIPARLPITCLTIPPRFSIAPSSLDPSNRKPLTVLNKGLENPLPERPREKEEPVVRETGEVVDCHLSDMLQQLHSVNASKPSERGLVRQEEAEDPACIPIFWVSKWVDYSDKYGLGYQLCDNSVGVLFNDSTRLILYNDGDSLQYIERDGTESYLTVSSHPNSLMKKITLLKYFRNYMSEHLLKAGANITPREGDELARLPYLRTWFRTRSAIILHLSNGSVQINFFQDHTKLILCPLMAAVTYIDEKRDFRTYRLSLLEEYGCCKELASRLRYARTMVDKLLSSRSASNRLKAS
SMILES,IC50 (recombinant Plk1) [nM],"IC50 [1, 2] [nM]",IC50 ([1]; read-out: Cell IC50) [nM]
"CCC1CN(C2CCCC2)c2nc(Nc3ccc(C(=O)NC4CCN(C)CC4)cc3OC)ncc2N(C)C1=O (single isomer, unassigned) [Example 236]",< 300,< 300,
"CCCC1CN(C2CCCC2)c2nc(Nc3ccc(C(=O)NC4CCN(C)CC4)cc3OC)ncc2N(C)C1=O (single isomer, unassigned) [Example 238]",< 1000,< 1000,
"COc1cc(C(=O)NC2CCN(C)CC2)ccc1Nc1ncc2c(n1)N(C1CCCC1)CC(C)C(=O)N2C (single isomer, unassigned) [Example 240]",< 300,< 300,
"COc1cc(C(=O)NC2CCN(C)CC2)ccc1Nc1ncc2c(n1)N(C1CCCC1)CCCN2C [Example 4, 4-[(2-Cyclopentyl-6-methyl-2,6,9,11-tetrazabicyclo[5.4.0]undeca-8,10,12-trien-10-yl)amino]-3-methoxy-N-(1-methyl-4-piperidyl)benzamide]",< 100000,< 1000,
"COc1cc(C(=O)NC2CCN(C)CC2)ccc1Nc1ncc2c(n1)N(C)CCC(=O)N2C [Example 5, 4-[(2,6-Dimethyl-5-oxo-2,6,9,11-tetrazabicyclo[5.4.0]undeca-7,9,11-trien-10-yl)amino]-3-methoxy-N-(1-methyl-4-piperidyl)benzamide]",< 300,< 30000,
"COc1cc(C(=O)NC2CCN(C)CC2)ccc1Nc1ncc2c(n1)N(C(C)C)CCC(=O)N2C [Example 6, 3-Methoxy-4-[(6-methyl-5-oxo-2-propan-2-yl-2,6,9,11-tetrazabicyclo[5.4.0]undeca-7,9,11-trien-10-yl)amino]-N-(1-methyl-4-piperidyl)benzamide]",< 300,< 300,
"COc1cc(C(=O)NC2CCN(C)CC2)ccc1Nc1ncc2c(n1)N(CCC(C)C)CCC(=O)N2C [Example 7, 3-Methoxy-4-[[6-methyl-2-(3-methylbutyl)-5-oxo-2,6,9,11-tetrazabicyclo[5.4.0]undeca-7,9,11-trien-10-yl]amino]-N-(1-methyl-4-piperidyl)benzamide]",< 1000,< 1000,
"COc1cc(C(=O)NCC(C)(C)CN(C)C)ccc1Nc1ncc2c(n1)N(C1CCCC1)CCC(=O)N2C [Example 10, 4-[(2-Cyclopentyl-6-methyl-5-oxo-2,6,9,11-tetrazabicyclo[5.4.0]undeca-8,10,12-trien-10-yl)amino]-N-(3-dimethylamino-2,2-dimethyl-propyl)-3-methoxy-benzamide hydrochloride]",< 300,< 300,
"COc1cc(C(=O)NC2CCN(C3CC3)CC2)ccc1Nc1ncc2c(n1)N(C1CCCC1)CCC(=O)N2C [Example 11, 4-[(6-cyclopentyl-2-methyl-3-oxo-2,6,8,10-tetrazabicyclo[5.4.0]undeca-8,10,12-trien-9-yl)amino]-N-(1-cyclopropyl-4-piperidyl)-3-methoxy-benzamide]",< 300,< 300,
"COc1cc(C(=O)NCCN2CCOCC2)ccc1Nc1ncc2c(n1)N(C1CCCC1)CCC(=O)N2C [Example 13, 4-[(6-cyclopentyl-2-methyl-3-oxo-2,6,8,10-tetrazabicyclo[5.4.0]undeca-8,10,12-trien-9-yl)amino]-3-methoxy-N-(2-morpholin-4-ylethyl)benzamide]",< 300,< 300,
"COc1cc(C(=O)NCCN(C)C)ccc1Nc1ncc2c(n1)N(C1CCCC1)CCC(=O)N2C [Example 14, 4-[(6-cyclopentyl-2-methyl-3-oxo-2,6,8,10-tetrazabicyclo[5.4.0]undeca-8,10,12-trien-9-yl)amino]-N-(2-dimethylaminoethyl)-3-methoxy-benzamide]",< 300,< 300,92
"CCN1CCCC1CNC(=O)c1ccc(Nc2ncc3c(n2)N(C2CCCC2)CCC(=O)N3C)c(OC)c1 (stereo not drawn) [Example 15, 4-[(6-cyclopentyl-2-methyl-3-oxo-2,6,8,10-tetrazabicyclo[5.4.0]undeca-8,10,12-trien-9-yl)amino]-N-[(1-ethylpyrrolidin-2-yl)methyl]-3-methoxy-benzamide]",< 300,< 300,
"CCN(CC)CCCC(C)NC(=O)c1ccc(Nc2ncc3c(n2)N(C2CCCC2)CCC(=O)N3C)c(OC)c1 (stereo not drawn) [Example 17, 4-[(6-cyclopentyl-2-methyl-3-oxo-2,6,8,10-tetrazabicyclo[5.4.0]undeca-8,10,12-trien-9-yl)amino]-N-(5-diethylaminopentan-2-yl)-3-methoxy-benzamide]",< 300,< 300,
"CCN(CC)CCNC(=O)c1ccc(Nc2ncc3c(n2)N(C2CCCC2)CCC(=O)N3C)c(OC)c1 [Example 18, 4-[(6-cyclopentyl-2-methyl-3-oxo-2,6,8,10-tetrazabicyclo[5.4.0]undeca-8,10,12-trien-9-yl)amino]-N-(2-diethylaminoethyl)-3-methoxy-benzamide]",< 300,< 300,
"COc1cc(C(=O)NCCCN2CCN(C)CC2)ccc1Nc1ncc2c(n1)N(C1CCCC1)CCC(=O)N2C [Example 20, 4-[(6-cyclopentyl-2-methyl-3-oxo-2,6,8,10-tetrazabicyclo[5.4.0]undeca-8,10,12-trien-9-yl)amino]-3-methoxy-N-[3-(4-methylpiperazin-1-yl)propyl]benzamide]",< 300,< 300,
"COc1cc(C(=O)NCCCCN(C)C)ccc1Nc1ncc2c(n1)N(C1CCCC1)CCC(=O)N2C [Example 21, 4-[(6-cyclopentyl-2-methyl-3-oxo-2,6,8,10-tetrazabicyclo[5.4.0]undeca-8,10,12-trien-9-yl)amino]-N-(4-dimethylaminobutyl)-3-methoxy-benzamide]",< 300,< 300,
"COc1cc(C(=O)NC2CN3CCC2CC3)ccc1Nc1ncc2c(n1)N(C1CCCC1)CCC(=O)N2C (stereo not drawn) [Example 22, N-(1-azabicyclo[2.2.2]oct-8-yl)-4-[(6-cyclopentyl-2-methyl-3-oxo-2,6,8,10-tetrazabicyclo[5.4.0]undeca-8,10,12-trien-9-yl)amino]-3-methoxy-benzamide]",< 300,< 300,
"COc1cc(C(=O)NCCCN2CCOCC2)ccc1Nc1ncc2c(n1)N(C1CCCC1)CCC(=O)N2C [Example 25, 4-[(6-cyclopentyl-2-methyl-3-oxo-2,6,8,10-tetrazabicyclo[5.4.0]undeca-8,10,12-trien-9-yl)amino]-3-methoxy-N-(3-morpholin-4-ylpropyl)benzamide]",< 300,< 300,
"COCCN1CCC(NC(=O)c2ccc(Nc3ncc4c(n3)N(C3CCCC3)CCC(=O)N4C)c(OC)c2)CC1 [Example 29, 4-[(6-cyclopentyl-2-methyl-3-oxo-2,6,8,10-tetrazabicyclo[5.4.0]undeca-8,10,12-trien-9-yl)amino]-3-methoxy-N-[1-(2-methoxyethyl)-4-piperidyl]benzamide]",< 300,< 300,
"CCN(CC)CCCCNC(=O)c1ccc(Nc2ncc3c(n2)N(C2CCCC2)CCC(=O)N3C)c(OC)c1 [Example 30, 4-[(6-cyclopentyl-2-methyl-3-oxo-2,6,8,10-tetrazabicyclo[5.4.0]undeca-8,10,12-trien-9-yl)amino]-N-(4-diethylaminobutyl)-3-methoxy-benzamide]",< 300,< 300,
"COc1cc(C(=O)NCCCCn2ccnc2)ccc1Nc1ncc2c(n1)N(C1CCCC1)CCC(=O)N2C [Example 31, 4-[(6-cyclopentyl-2-methyl-3-oxo-2,6,8,10-tetrazabicyclo[5.4.0]undeca-8,10,12-trien-9-yl)amino]-N-(4-imidazol-1-ylbutyl)-3-methoxy-benzamide]",< 1000,< 300,
"COc1cc(C(=O)NCCN2CC3CCC(C2)O3)ccc1Nc1ncc2c(n1)N(C1CCCC1)CCC(=O)N2C [Example 32, 4-[(6-cyclopentyl-2-methyl-3-oxo-2,6,8,10-tetrazabicyclo[5.4.0]undeca-8,10,12-trien-9-yl)amino]-3-methoxy-N-[2-(8-oxa-3-azabicyclo[3.2.1]oct-3-yl)ethyl]benzamide]",< 1000,< 300,
"COc1cc(C(=O)NCCCCN2CCCC2)ccc1Nc1ncc2c(n1)N(C1CCCC1)CCC(=O)N2C [Example 33, 4-[(6-cyclopentyl-2-methyl-3-oxo-2,6,8,10-tetrazabicyclo[5.4.0]undeca-8,10,12-trien-9-yl)amino]-3-methoxy-N-(4-pyrrolidin-1-ylbutyl)benzamide]",< 300,< 300,
"COc1cc(C(=O)NCCN2CCN(C)CC2)ccc1Nc1ncc2c(n1)N(C1CCCC1)CCC(=O)N2C [Example 34, 4-[(6-cyclopentyl-2-methyl-3-oxo-2,6,8,10-tetrazabicyclo[5.4.0]undeca-8,10,12-trien-9-yl)amino]-3-methoxy-N-[2-(4-methylpiperazin-1-yl)ethyl]benzamide]",< 300,< 300,
"COc1cc(C(=O)NCCN2CCC(F)(F)CC2)ccc1Nc1ncc2c(n1)N(C1CCCC1)CCC(=O)N2C [Example 37, 4-[(6-cyclopentyl-2-methyl-3-oxo-2,6,8,10-tetrazabicyclo[5.4.0]undeca-8,10,12-trien-9-yl)amino]-N-[2-(4,4-difluoro-1-piperidyl)ethyl]-3-methoxy-benzamide]",< 1000,< 300,
"CN1C(=O)CCN(C2CCCC2)c2nc(Nc3ccncc3)ncc21 [Example 268, 6-cyclopentyl-2-methyl-9-(pyridin-4-ylamino)-2,6,8,10-tetrazabicyclo[5.4.0]undeca-8,10,12-trien-3-one]",< 100000,,
"COc1cc(C(=O)NC2CCN(C)CC2)ccc1Nc1ncc2c(n1)N(Cc1c(C)noc1C)CCC(=O)N2C [Example 273, 4-[[2-[(3,5-dimethyl-1,2-oxazol-4-yl)methyl]-6-methyl-5-oxo-2,6,9,11-tetrazabicyclo[5.4.0]undeca-7,9,11-trien-10-yl]amino]-3-methoxy-N-(1-methyl-4-piperidyl)benzamide]",< 100000,,
"COc1cc(C(=O)NC2CCCCC2)ccc1Nc1ncc2c(n1)N(CCN1CCCCC1)CCC(=O)N2C [Example 276, N-cyclohexyl-3-methoxy-4-[[6-methyl-5-oxo-2-[2-(1-piperidyl)ethyl]-2,6,9,11-tetrazabicyclo[5.4.0]undeca-7,9,11-trien-10-yl]amino]benzamide]",< 100000,,
